Data on three compounds can be found in paper PMC7253423, “Quassinoid analogs with enhanced efficacy for treatment of hematologic malignancies target the PI3Kγ isoform” (Communications Biology, 2020).

The test system of data set [1] is Raji cells. Nature of the data set: Cell viability assay (CellTiter-Glo luminescence). The data set is classed as cell-based, human. The settings on record: Homo sapiens; for viability at 0.00244141 µM: read-out: relative cell viability (Fig 6f), replicates, Raji, Con. 0.00244141 μM, fraction of 0 μM control; for viability at 0.15625 µM: read-out: relative cell viability (Fig 6f), replicates, Raji, Con. 0.15625 μM, fraction of 0 μM control. How it is done:
(§1) 5000 cells as indicated were cultured in 96-well plate with 100 μl of media. […] After treatment, the cells were incubated with 100 μl buffer for 10 min at room temperature following the instructions of CellTiter-Glo kit (Promega, Madison, WI). Luminescence was detected using a multi-mode reader Cytation 5 (BioTek, Winooski, VT). […] Two independent experiments done in duplicates were performed.
A general note: In ATP-based viability assays light output follows the ATP content of the culture.

Data set [2] relates to PBMC. Nature of the data set: Cytotoxicity, cell viability assay in normal cells. It counts as cell-based, human. To be noted: Fig 5c.
From the text: (§2) Human peripheral blood mononuclear cells (PBMCs), normal T-cells and B-cells were provided by the University of Pennsylvania Human Immunology Core (HIC), and Patient-derived xenografts (PDXs) were obtained from Fox Chase Cancer Center (FCCC). These samples were from different unidentified and healthy donors with written, informed consent. All the procedures were approved by the Institutional Review Board (IRB) and conducted according to the declarations of Helsinki protocols.
as §1

Data set [3] concerns hematologic malignancies derived cell lines. Nature of the data set: Cell viability assay, panel of hematologic malignancy derived cell lines. It counts as cell-based, human. To be noted: 100 nM, 72 h, lymphoma, leukemia and multiple myeloma cell lines (13 cell lines for analogs). As to the method:
5000 cells as indicated were cultured in 96-well plate with 100 μl of media. On the next day, Brusatol or associated analogs were added once to the cells without media change. After treatment, the cells were incubated with 100 μl buffer for 10 min at room temperature following the instructions of CellTiter-Glo kit (Promega, Madison, WI). Luminescence was detected using a multi-mode reader Cytation 5 (BioTek, Winooski, VT). […] Two independent experiments done in duplicates were performed.

Data set [4] relates to MOLM14 xenografts. Nature of the data set: In vivo tumorigenic assay using xenografts, tumor size. Details: species or system NOD/SCID mice. To be noted: MOLM14 xenograft. As to the method: (§3) Six-week-old male NOD.CB17-Prkdc^scid/J (NOD/SCID) mice (Jackson Labs, Bar Harbor, ME, USA) were used as the human-in-mouse xeno-transplantation model. MOLM14 cells (1 × 10^7 cells) were injected into the subcutaneous space on the left flank of the mice. […] Body weight and tumor size were monitored before every injection. After treatment for 2 weeks, the mice were euthanized by CO2 inhalation and the tumors were carefully excised. The tumor volume (mm^3) was measured and calculated using the formula (a × b × b)/2 (a, the largest diameter of two measurements; b, the smallest diameter of two measurements).

Data set [5] can be described thus: Body weight of xenograft mice. It counts as in vivo, NOD/SCID mice. The settings on record: individual mice, Fig S3i, in g (unit assumed). How it is done: as §3
In data set [6] the test system is SU-DHL-4 cells. Nature of the data set: Cell viability assay (CellTiter-Glo luminescence). To be noted: Homo sapiens, SU-DHL-4, 144 h; for viability at 0.15625 µM: read-out: relative cell viability (Fig 6d), replicates, SU-DHL-4, Con. 0.15625 μM, fraction of 0 μM control; for viability at 0.625 µM: read-out: relative cell viability (Fig 6d), replicates, SU-DHL-4, Con. 0.625 μM, fraction of 0 μM control; for viability at 10 µM: read-out: relative cell viability (Fig 6d), replicates, SU-DHL-4, Con. 10 μM, fraction of 0 μM control. It counts as cell-based, human. How it is done: as §1

Data set [7] deals with MOLM14 cells. Nature of the data set: Cell viability assay (CellTiter-Glo luminescence). The data set is classed as cell-based. To be noted: Homo sapiens; for viability at 0.625 µM: MOLM-14, read-out: relative cell viability (Fig 6e), replicates, MOLM14, Con. 0.625 μM, fraction of 0 μM control; for viability at […]: MOLM-14, read-out: relative cell viability (Fig 6e), replicates, MOLM14, Con. […], fraction of 0 μM control. How it is done:
as §1

Data set [8] can be described thus: Cytotoxicity, cell viability assay in normal cells. It counts as cell-based, human. The settings on record: human, PBMC, fraction of 0 μM control, read-out: relative cell viability (Fig 6a), replicates; for viability at 0.00390625 μM: Con. 0.00390625 μM; for viability at 0.015625 μM: Con. 0.015625 μM; for viability at 0.0625 μM: Con. 0.0625 μM; for viability at 1 μM: Con. 1 μM.
From the text: as §2, §1

A short description of data set [9]: Cytotoxicity, cell viability assay in normal cells. To be noted: human, fraction of 0 μM control; for viability at 0.000244141 μM: Con. 0.000244141 μM; for viability at 0.015625 μM: Con. 0.015625 μM; for viability at 0.0625 μM: Con. 0.0625 μM; for viability at 1 μM: Con. 1 μM; for viability at […]: Con. […]; for viability at 0.00390625 μM: Con. 0.00390625 μM. The data set is classed as cell-based.
From the text: as §2, §1

The mark [10] stands for this setting: normal B-cells from healthy donors, B-cells, read-out: relative cell viability (Fig 6c), replicates.
[11] abbreviates: normal T-cells from healthy donors, T-cells, read-out: relative cell viability (Fig 6b), replicates.

The structures appear in SMILES notation. Several values for one entry are separate records, joined by “and”; a condition that tells them apart may be missing. Equal values may be shown once. Read-outs that look alike come from different tables or passages of the source.

By IC50 is commonly meant the concentration at which inhibition is half-maximal. For `COC(=O)C12OCC34C(CC5C(C)=C(OC(=O)C(N)Cc6ccccc6)C(=O)CC5(C)C3C(O)C1O)OC(=O)C(OC(=O)C=C(C)C)C24` (stereo not shown) [#14], the IC50 in [1] (analogs, 72 h, Fig. 5c, read-out: IC50) stood at 39.2 nM. Also, the “Cell viability, raw luminescence reading” value was 16702 and 18584 in data set [2] (Con. 0.01 μM); 14138 and 13170 in data set [2] (Con. 0.039 μM); 9796 and 9988 in data set [2] (Con. 0.156 μM); 7942 and 8235 in data set [2] (Con. 0.625 μM); 10547 and 15443 in data set [2] (Con. 10 μM). The “inhibition of cell viability in panel of cell lines” value in data set [3] was “significantly inhibit”. The “tumor size (Fig 5d&5e), individual mice” value in data set [4] (0d) is 146.154 and 92.4556 and 61.5288 and 118.617 and 111.079 and 97.6091; in data set [4] (2d), 155.286 and 83.3599 and 78.5598 and 123.615 and 132.099 and 148.619; in data set [4] (4d), 205.624 and 120.823 and 83.03 and 205.911 and 121.618 and 141.386; in data set [4] (6d), 215.948 and 214.154 and 405.903 and 288.793 and 65.298 and 81.0923; in [4] (8d), 654.828 and 372.84 and 268.332 and 549.466 and 314.977 and 266.348; in data set [4] (10d), 1094.41 and 794.074 and 511.007 and 817.839 and 517.393 and 583.109. The “tumor size (Fig 5d&5e), individual mice” value in data set [4] (12d) was 1848.1 and 1147.5 and 978.929 and 1531.82 and 970.42 and 1008.11. Also, the Body weight is 25.66 and 26.32 and 25.88 and 25.26 and 25.69 in [5] (0d); 26.84 and 26.83 and 25.73 in [5] (2d); 30.22 and 27.96 in data set [5] (4d); 31.1 and 27.6 in data set [5] (6d); 31.54 and 29.03 and 29.06 and 28.16 and 27.82 and 27.45 in [5] (8d); 32.14 and 29.64 and 29.88 and 28.65 and 28.04 in data set [5] (10d). In addition, the Body weight in data set [5] (12d) is 33.33 and 31.09 and 31.73 and 30.06 and 30.08.
The term viability denotes a read-out of living cells in per cent, often relative to untreated cells. With `C[C@H](NC(=O)c1c(N)nn2cccnc12)c1cc2cccc(C#Cc3cnn(C)c3)c2c(=O)n1-c1ccccc1` [IPI-549], the viability at 0.00244141 µM was 95.4% in [1]; 94.9% in data set [6] (read-out: relative cell viability (Fig 6d), replicates, SU-DHL-4, Con. 0.00244141 μM, fraction of 0 μM control); 121% in [7] (MOLM-14, read-out: relative cell viability (Fig 6e), replicates, MOLM14, Con. 0.00244141 μM, fraction of 0 μM control). Also, in data set [1] (read-out: relative cell viability (Fig 6f), replicates, Raji, Con. 0.0390625 μM, fraction of 0 μM control), the viability at 0.0390625 µM worked out at 108%. Besides, the viability at 0.15625 µM in data set [1] stood at 113%; in [6] it was 115%. Also, the viability at 0.625 µM in data set [1] (read-out: relative cell viability (Fig 6f), replicates, Raji, Con. 0.625 μM, fraction of 0 μM control) worked out at 122%; in [6], 94.2%; in data set [7], 93.4%. The viability at 10 µM was found to be 55% in data set [1] (read-out: relative cell viability (Fig 6f), replicates, Raji, Con. 10 μM, fraction of 0 μM control); 30.8% in [6]; 23.9% in [7] (MOLM-14, read-out: relative cell viability (Fig 6e), replicates, MOLM14, Con. 10 μM, fraction of 0 μM control). The viability at […] was 98.4% in data set [1] (read-out: relative cell viability (Fig 6f), replicates, Raji, Con. […], fraction of 0 μM control); 119% in [7]; 122% in data set [9] (setting [10]); 109% in data set [9] (setting [11]). Further, the viability at 0.00390625 μM in data set [8] is 98.8%; in data set [9] (setting [11]), 107%. Also, the values for the viability at 0.015625 μM in data set [8], in data set [9] (setting [10]) and in data set [9] (setting [11]) were 104%, 118% and 109%, respectively. In addition, the viability at 0.0625 μM in data set [8] is 102%; in data set [9] (setting [10]), 105%; in data set [9] (setting [11]), 83.1%. Besides, the viability at 1 μM in data set [8] was determined as 99.1%; in data set [9] (setting [10]), 93.7%; in data set [9] (setting [11]) it was 115%. Moreover, the viability at 0.000244141 μM in [9] (setting [10]) stood at 107%; in data set [9] (setting [11]) it was 108%.
With `CC[C@H](Nc1ncnc2[nH]cnc12)c1nc2cccc(F)c2c(=O)n1-c1ccccc1` [Idelalisib], in data set [1], the viability at 0.00244141 µM was found to be 111% and the viability at 0.15625 µM amounted to 114%. Also, in [6] (read-out: relative cell viability (Fig 6d), replicates, SU-DHL-4, Con. 0.0390625 μM, fraction of 0 μM control), the viability at 0.0390625 µM was 96.2%. Also, in data set [6], the viability at 0.15625 µM is 99.8%, the viability at 0.625 µM was determined as 87.1% and the viability at 10 µM turned out to be 33.1%. In addition, in [7], the viability at 0.625 µM stood at 113% and the viability at […] worked out at 120%. Further, in data set [8], the viability at 0.00390625 μM came out at 99.7%, the viability at 0.015625 μM came to 111%, the viability at 0.0625 μM was 83.8% and the viability at 1 μM was found to be 89.1%. In [9] (setting [10]), the viability at 0.000244141 μM amounted to 101%, the viability at 0.00390625 μM stood at 103%, the viability at 0.015625 μM is 103% and the viability at 1 μM was found to be 81.2%. For the same compound, in data set [9] (setting [11]), the viability at 0.000244141 μM was 105%, the viability at 0.00390625 μM turned out to be 102%, the viability at 0.015625 μM turned out to be 98.9% and the viability at 1 μM is 98.7%.
